Our source for the EC50, IC50 and outcome values is PubChem BioAssay AID179 (DTP/NCI, 2004).

By EC50 is commonly meant the concentration giving half of the maximal effect. Usually IC50 stands for the concentration that inhibits the measured activity by half. The low end stands for greater potency, the high end for weaker potency.

Molecules are shown by their SMILES. The source made the active and inactive calls.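 How the source made its calls: active means compounds giving half or more protection of infected cells from virus-caused growth loss, again on retest; inactive means the rest.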 Where a SMILES comes first, the peptide text is derived from it.

The test system of this assay is CEM cells HIV-1 protection, formazan growth assay. The experiment in a line: NCI AIDS Antiviral Assay. Particulars: for IC50: measured here: growth of uninfected CEM cells. The method, boiled down: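 CEM (human) cells, HIV-1 infected vs uninfected, 5-point dosing, formazan growth read-out. Retest threshold 50% protection.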

`NCC(O)c1ccc(Nc2ccnc3cc(Cl)ccc23)cc1` (stereo not drawn): the EC50 was more than 93.3 µM and the IC50 turned out to be 38 µM.

Consider `COC(=O)c1cc(Cc2cc(Br)cc(C(=O)OC)c2O)cc(Cl)c1O`, for which the EC50 is more than 100 µM and the IC50 is more than 100 µM.

Turning to `Cc1c(-c2nnc(-c3ccccc3)o2)c(=O)n(-c2ccccc2)n1C`, the EC50 is more than 200 µM and the half-inhibitory concentration (IC50) was more than 200 µM.

For `NC(=O)c1cccc(NC=O)c1`, the EC50 is more than 1510 µM and the IC50 was found to be 1290 µM.

For `COc1ccc(CC(CC(=O)O)NC(C)=O)cc1` (stereo not drawn), the EC50 is more than 1000 µM and the IC50 is more than 1000 µM.

Turning to `COC(=O)c1cc(=O)nc2cc3cccccc3n12`, the outcome was inactive.

For `O=C1Nc2nc(=O)nc3[nH]c(=O)nc(n23)N1`, the EC50 was more than 251 µM and the IC50 is more than 251 µM.

As for `C=C1C(=O)C23[C@H](O)C1CC[C@H]2[C@]12COC3(O)[C@@H](O)[C@@H]1C(C)(C)CC[C@@H]2O`, the EC50 is more than 347 µM and the IC50 stood at 1.95 µM.

Regarding `OC(C#CCN1CCCC1)(c1ccccc1)c1ccccc1.[C-]#[O+].[C-]#[O+].[C-]#[O+].[C-]#[O+].[C-]#[O+].[C-]#[O+].[Co].[Co]`, the EC50 was more than 200 µM and the concentration for half-maximal inhibition (IC50) came out at 7.41 µM.

As for `Nc1nc(Cl)c(N=Nc2ccc(Cl)cc2)c(NCC2(CO)CC2)n1`, the EC50 was more than 200 µM and the IC50 was more than 200 µM.

For `CC(C)(C)[Si](C)(C)OCC1OC(n2ccc(=O)[nH]c2=O)CC1(O)C/C=N/O` (stereo not drawn), the EC50 is more than 200 µM and the IC50 came out at 12.6 µM.

Take `CC(C)CC(NC(=O)C(Cc1ccc(O)cc1)NC(=O)C(CO)NC(=O)C(CCC(=O)O)NC(=O)C1CCCN1C(=O)C(CC(C)C)NC(=O)C(C)NC(=O)CNC(=O)C(N)CCC(=O)O)C(=O)NC(Cc1c[nH]c2ccccc12)C(=O)O` (stereo not drawn) (H-EGALPESYLW-OH; configuration not given here): the result was inactive.

As to `C=CCOc1ccccc1C1(O)c2ccccc2C2=NCCCN21` (stereo not drawn), the EC50 is more than 200 µM and the IC50 amounted to 40.7 µM.

Regarding `CC(=O)n1nnc2ccc([N+](=O)[O-])cc21`, the EC50 was more than 34.7 µM and the IC50 is more than 34.7 µM.

On to `COC(=O)c1ncn(C2CCCCC2)c1N`, for which the EC50 is more than 200 µM and the 50% inhibitory concentration (IC50) was more than 200 µM.

`COC(=O)C1OC2(CCCC3CC32)O[C@H]1C(=O)OC` (stereo partly drawn): the outcome was inactive.

On to `Cc1ccc(C2OC(=O)c3c2ccc2ccccc32)cc1` (stereo not drawn), for which the EC50 is more than 35.5 µM and the half-inhibitory concentration (IC50) was more than 35.5 µM.

With `COc1ccc2[nH]c(C(O)(Cc3cccnc3)Cc3cccnc3)cc2c1`, the EC50 is 191 µM and the IC50 was more than 200 µM.

`O=C1Cc2c(-c3ccccc3)cc(-c3ccc(Cl)cc3)nc2-c2ccccc2N1`: the EC50 is more than 200 µM and the IC50 came to 93.3 µM.

As for `NC(=S)N/N=C1\c2ccccc2CCC1CCC1(O)CCc2ccccc2C1=O` (stereo not drawn), the EC50 was more than 200 µM and the IC50 is 31.6 µM.

`CCOC(=O)OC1(c2ccccc2)CCN(C)CC1`: the EC50 was more than 200 µM and the IC50 was more than 200 µM.

As for `C/C(=N/Nc1ccc([N+](=O)[O-])cc1[N+](=O)[O-])C(CC(C(=O)NCc1ccccc1)/C(C)=N\Nc1ccc([N+](=O)[O-])cc1[N+](=O)[O-])C(=O)NCc1ccccc1` (stereo not drawn), the EC50 was more than 6.92 µM and the IC50 was more than 6.92 µM.

On to `COC(=O)c1cc(CN(C)C)c(O)c(CN(C)C)c1`, for which the EC50 was more than 200 µM and the IC50 is more than 200 µM.

Regarding `BrN1C2c3ccccc3C1c1ccccc12`, the outcome was inactive.

With `CCOCC(C)(CO)CC(C)CO` (stereo not drawn), the EC50 is more than 200 µM and the IC50 is more than 200 µM.

As for `CC(=O)Oc1ccc2c(C)cc(=O)oc2c1OC(C)=O`, the EC50 is more than 200 µM and the IC50 came to 69.2 µM.

Take `CCn1c(CSc2nc(-c3ccccc3)c(-c3ccccc3)[nH]2)n[nH]c1=S`: the EC50 was more than 91.2 µM and the IC50 was found to be 52.5 µM.

Regarding `CCOC(=O)N1CCC(=O)C[C@@H]1C/C=C/P1(=O)O[C@H](c2ccccc2)C(C)N1C(C)C` (stereo partly drawn), the result was inactive.

As to `O=C1CC2C=CC1C2CO` (stereo not drawn), the outcome was inactive.

For `Cc1cc(C)n2nc(N)c(C#N)c2c1C#N`, the EC50 was more than 12.9 µM and the IC50 was more than 12.9 µM.

Regarding `O=c1/c(=N\Nc2ccccc2)c2cccc3ccc4cccc1c4c32`, the EC50 was more than 100 µM and the IC50 is more than 100 µM.

With `OCc1cc2c(cn1)[nH]c1ccc(NCc3ccccc3)cc12`, the result was inactive.

In the case of `COC(=O)[C@@H](CO)NC(=O)OC(C)(C)C`, the EC50 was more than 200 µM and the IC50 was more than 200 µM.

On to `CC1(CCC(=O)c2ccc3c(c2)OCO3)OCCO1`, for which the EC50 was more than 97.7 µM and the IC50 was more than 97.7 µM.

Turning to `NC(=N\N=C/c1ccc(Cl)cc1)/C(N)=N\N=C/c1ccc(Cl)cc1`, the result was inactive.

With `O=NC1C2C=CC(C2)C1Cl` (stereo not drawn), the EC50 was more than 200 µM and the IC50 was more than 200 µM.

`O=c1onc2n1-c1ccc(Cl)cc1C(=S)N1CSCC21` (stereo not drawn): the EC50 is more than 200 µM and the 50% inhibitory concentration (IC50) turned out to be 32.4 µM.

As for `O=S(=O)(c1ccccc1)C1(C2(S(=O)(=O)c3ccccc3)CCN=N2)CCN=N1` (stereo not drawn), the result was inactive.

For `CC(CC1c2ccccc2CCc2ccccc21)CN(C)C` (stereo not drawn), the EC50 was more than 200 µM and the half-maximal inhibitory concentration (IC50) was 33.1 µM.

Regarding `COc1ccc(/C=N/N=C(\[O-])c2ccncc2)cc1F.COc1ccc(/C=N\N=C(/[O-])c2ccncc2)cc1F.[Cu+2]`, the EC50 is more than 100 µM and the IC50 stood at 18.6 µM.

Regarding `CC12CCC(CC1=O)C2(C)CCC(N)=O` (stereo not drawn), the EC50 was more than 200 µM and the IC50 was more than 200 µM.

Regarding `Cc1ccc(S(=O)(=O)N2c3ccccc3[C@H]3CCC=C[C@H]32)cc1`, the EC50 is more than 100 µM and the IC50 was 6.92 µM.

Consider `OC1C#CCSCC#C/C=C\1` (stereo not drawn), for which the EC50 is more than 200 µM and the half-maximal inhibitory concentration (IC50) was 10.5 µM.

Take `CCC1SC(C)C(=O)NC1=O` (stereo not drawn): the EC50 was more than 661 µM and the IC50 is more than 661 µM.

For `CC1Cn2c(=S)[nH]c3cccc(c32)NC1=O` (stereo not drawn), the EC50 is more than 200 µM and the IC50 is more than 200 µM.

For `COC1C(=O)CCC2(CO2)C1(O)C1(C)OC1CCC(C)C` (stereo not drawn), the EC50 was more than 200 µM and the IC50 came to 4.37 µM.

For `O=C(/C=C/c1ccc(Cl)cc1)c1cccs1`, the EC50 is more than 200 µM and the IC50 turned out to be 1.23 µM.

Regarding `CN1C(c2ccccc2)(c2ccccc2)c2ccccc2S1(=O)=O`, the EC50 was more than 200 µM and the IC50 was determined as 50.1 µM.

As to `Brc1cc2c(cc1C1SCCS1)OCO2`, the EC50 is more than 107 µM and the IC50 was found to be 60.3 µM.

Turning to `Nc1n[n+]([O-])c2cc([N+](=O)[O-])ccc2[n+]1[O-]`, the EC50 is more than 20 µM and the IC50 was found to be 0.603 µM.

For `CCc1cc(Cc2cc(CC)c(NC(=O)C(=O)Cc3ccccn3)c(CC)c2Cl)c(Cl)c(CC)c1NC(=O)C(=O)Cc1ccccn1`, the EC50 was more than 72.4 µM and the half-inhibitory concentration (IC50) was more than 72.4 µM.

In the case of `CC(C)/C=N\n1c(N)c(C#N)c(C#N)c1C(C)C`, the EC50 is more than 200 µM and the IC50 was determined as 63.1 µM.

As to `Fc1ccc2c(c1)CN(CCN1COc3ccc(F)cc3C1)CO2`, the EC50 is more than 8.13 µM and the IC50 was more than 8.13 µM.

Regarding `CCOC(=O)C(OCC1CC=CCC1)Sc1ccccc1` (stereo not drawn), the EC50 is more than 23.4 µM and the IC50 was more than 23.4 µM.

With `Cc1ccc(C(=O)Nc2ccc(S(=O)(=O)O)c3cc(S(=O)(=O)O)cc(S(=O)(=O)O)c23)cc1NC(=O)c1cccc(N)c1`, the EC50 is more than 200 µM and the IC50 was more than 200 µM.

With `CCOC(=O)c1cc(-c2ccc(-c3cc(C(=O)OCC)c(C#N)c(N)c3C#N)cc2)c(C#N)c(N)c1C#N`, the EC50 is more than 26.9 µM and the IC50 is more than 26.9 µM.

`Cc1cc(N(CCC#N)CCC#N)ccc1/C=N/NC(=O)c1cc(Cl)ccc1O`: the EC50 was more than 200 µM and the IC50 is more than 200 µM.

As for `CCOC(=O)C(Cl)(Cl)/S(=N\S(=O)(=O)c1ccccc1)NC(=O)c1ccccc1` (stereo not drawn), the EC50 is more than 200 µM and the IC50 is more than 200 µM.

With `CC(SS(=O)(=O)O)C(N)=NCc1ccccc1` (stereo not drawn), the EC50 was more than 200 µM and the half-inhibitory concentration (IC50) worked out at 67.6 µM.

In the case of `O=C(NCCCC1C2CCC(C2)C1CNC(=O)Nc1cccc(Cl)c1)Nc1cccc(Cl)c1` (stereo not drawn), the EC50 was more than 200 µM and the IC50 amounted to 3.63 µM.

Consider `Cn1c(=O)c2c(nnc(-c3ccccc3)[n+]2[O-])n(C)c1=O`, for which the EC50 was more than 200 µM and the IC50 is 87.1 µM.

On to `Nc1nc(NC(=O)C2=NS(=O)(=O)c3cc(S(N)(=O)=O)c(Cl)cc3N2)n[nH]1`, for which the EC50 is 331 µM and the IC50 stood at 380 µM.

Regarding `C/C=C/C(C1=C(O)c2ccccc2C(=O)C1=O)C1=C(O)c2ccccc2C(=O)C1=O`, the EC50 was more than 200 µM and the IC50 came to 83.2 µM.

As for `N/N=C(\Cc1ccccc1)NN=C(N)N`, the EC50 is more than 457 µM and the half-maximal inhibitory concentration (IC50) stood at 389 µM.

Turning to `N=c1c2c(ncn1N)Oc1c(c(-c3ccccc3)nn1-c1ccccc1)C2c1ccc(Cl)cc1` (stereo not drawn), the EC50 was more than 200 µM and the half-maximal inhibitory concentration (IC50) came to 2.09 µM.

In the case of `O=[N+]([O-])c1ccc2c(c1)NC(O)C(O)N2` (stereo not drawn), the EC50 was more than 200 µM and the IC50 was 174 µM.

Regarding `C=C(C)[C@H]1CC[C@@]2(C)C(C1)[C@H](C)CC[C@@H]2O` (stereo partly drawn), the outcome was inactive.

For `CCOC(=O)C1C(=O)CC(C)(O)C(C(=O)OCC)C1c1ccc(N(C)C)cc1` (stereo not drawn), the EC50 is more than 200 µM and the IC50 was more than 200 µM.

As to `CN1CNc2nc(N)n(C)c(=O)c2C1`, the EC50 was more than 200 µM and the half-inhibitory concentration (IC50) is more than 200 µM.

For the molecule `CCCCCCCCCCCCCCCC(=O)OCCOCCOCCOCc1ccccc1`, the outcome was inactive.

Regarding `Cc1cc(C)nc(NS(=O)(=O)c2ccc(Nc3c4ccccc4nc4c(C(=O)Nc5ccc(S(=O)(=O)N=C(N)N)cc5)cccc34)cc2)n1`, the EC50 is 49 µM and the IC50 worked out at 51.3 µM.

Turning to `OC(C/C(=N\N=C(/CC(O)(C(F)(F)F)C(F)(F)F)c1ccccc1)c1ccccc1)(C(F)(F)F)C(F)(F)F`, the EC50 was more than 200 µM and the IC50 is more than 200 µM.
